In patent US11078184B2, “Dexrabeprazole sodium compound and pharmaceutical composition thereof” (JIANGSU AOSAIKANG PHARMACEUTICAL CO., LTD., priority 2017, dated 2021):

Experiments:
[1] = Determination of hygroscopic moisture; type: physicochemical; conditions: 25° C. thermostatic drier over saturated ammonium chloride solution, sodium salt
Method: Determination of hygroscopic moisture: 25±+1° C. Thermostatic Drier (with a saturated solution of ammonium chloride being placed at bottom of the drier).

[2] = High temperature / grinding test, change of crystal form by XRPD; type: physicochemical; conditions: sodium salt; for Stability of the crystal form at a high temperature: XRPD
Source text: Crystal forms A and C of dexrabeprazole sodium were placed under different conditions as listed in Table 5 below, and sampled for XRPD detection to investigate the change of crystal forms.

[3] = Test of influence factors (stability: appearance and relevant materials by HPLC); type: physicochemical
Method: Chromatographic conditions of relevant materials: Chromatographic column: charged with octadecylsilane bonded silica as a filler (Agilent ZORBAX Extend C18, 250×4.6 mm, […]); Mobile phase A: 0.025 mol/L of phosphate solution (the pH of 0.025 mol/L of dipotassium phosphate solution was adjusted to 7.2 with phosphoric acid)-acetonitrile (95:5); Mobile phase B: methanol; Mobile phase C: acetonitrile; A linear gradient elution is carried out in accordance with the following table. Detection wavelength: 280 nm, 220 nm (for impurity H) Flowrate: 1.0 ml/min Column temperature: 25° C. Sample size: 5 μl Diluent: the pH of 0.1 mol/L of dipotassium phosphate solution was adjusted to 11.3 with 2 mol/L potassium hydroxide solution-methanol (45:55). Crystal forms A, B, and C (each 100 mg) were placed under different conditions, and sampled at Days 0, 10, 20, and 30 for detecting their characters and relevant materials, respectively.

[4] = Determination of angle of repose (powder flowability); type: physicochemical; conditions: average of three determinations; sodium salt
Method: Determination of angle of repose: BT-1001 Intelligent Powder Characteristic Tester (Dandong Bettersize Instrument Co., Ltd.)
Angle of repose is a key characteristic of the frictional resistance between powder particles, and is an important parameter for characterizing the powder flowability. The angle of repose is determined by measuring the height and the base radius of a cone formed by powders, with a calculation equation as follows: tan(α)=height/radius. The angle of reposes of crystal forms A and B were measured and compared for their difference, respectively.

[5] = Tap density, bulk density, compression coefficient and Hausner ratio; type: physicochemical; conditions: sodium salt
Method: The compression coefficient and the Hausner ratio closely related thereto are simple and fast methods for predicting the powder property, and are often used as the index for characterizing the powder flowability. Crystal forms A and B were sampled for measuring the tap density and bulk density of powder of different crystal forms, and then the compression coefficient and the Hausner ratio were calculated. Wherein, the compression coefficient (%)=[(the tap density−the bulk density)/the tap density×100%; and the Hausner ratio=the tap density/the bulk density.

[6] = Test of suspension equilibrium (XRPD); conditions: suspension in acetonitrile
Method: XRPD test (FIGS. 10 & 12-14, Modern Analysis Center, Nanjing University): Instrument model: Thermo Co., Ltd., X'TRA Type X Diffractometer, target: Cu (40 kV, 40 mA), scanning range: 2°-40° (2θvalue), scanning step length: 0.02, scanning speed: 5
The mixture was stirred, together with 10 ml of a solvent at 35° C. and under nitrogen atmosphere, and then sampled for XRPD detection.

[7] = High humidity, RH75 ± 5%, Day 0
[8] = High humidity, RH75 ± 5%, Day 0, sodium salt
[9] = High humidity, RH75 ± 5%, Day 10, sodium salt
[10] = High humidity, RH75 ± 5%, Day 20, sodium salt
[11] = High humidity, RH75 ± 5%, Day 30, sodium salt
[12] = High temperature, 40° C., Day 0
[13] = High temperature, 40° C., Day 0, sodium salt
[14] = High temperature, 40° C., Day 10
[15] = High temperature, 40° C., Day 10, sodium salt
[16] = High temperature, 40° C., Day 20
[17] = High temperature, 40° C., Day 20, sodium salt
[18] = High temperature, 40° C., Day 30
[19] = High temperature, 40° C., Day 30, sodium salt
[20] = Light exposure, 4500 ± 500 Lx, Day 0
[21] = Light exposure, 4500 ± 500 Lx, Day 0, sodium salt
[22] = Light exposure, 4500 ± 500 Lx, Day 10
[23] = Light exposure, 4500 ± 500 Lx, Day 10, sodium salt
[24] = Light exposure, 4500 ± 500 Lx, Day 20
[25] = Light exposure, 4500 ± 500 Lx, Day 20, sodium salt
[26] = Light exposure, 4500 ± 500 Lx, Day 30
[27] = Light exposure, 4500 ± 500 Lx, Day 30, sodium salt

SMILES: COCCCOc1ccnc(C[S@@+]([O-])c2nc3ccccc3[n-]2)c1C.[Na+] [Amorphous form, R-(+)-2-{[4-(3-methoxypropoxy)-3-methylpyrid-2-yl]methylsulfinyl}-1H-benzimidazole sodium salt, reference compound]
- Hygroscopic moisture (%) ([1]; 0 h): 6.60%
- Hygroscopic moisture (%) ([1]; 24 h): 21.60%
- Hygroscopic moisture (%) ([1]; 48 h): 21.81%

SMILES: COCCCOc1ccnc(C[S@@+]([O-])c2nc3ccccc3[n-]2)c1C.[Na+] [Crystal form A, R-(+)-2-{[4-(3-methoxypropoxy)-3-methylpyrid-2-yl]methylsulfinyl}-1H-benzimidazole sodium salt, reference compound]
- Comparison of XRPD fit charts (change of crystal form) ([2]; grinded in a mortar for 5 min): partially converted to an amorphous form
- Stability of the crystal form at a high temperature [2]: unstable at a high temperature
- Appearance character [3, 7]: Off-white
- Relevant materials: Maximum individual impurity (%) [3, 8]: 0.037%
- Relevant materials: Total impurity (%) [3, 8]: 0.098%
- Appearance character ([3]; High humidity, RH75 ± 5%, Day 10): Yellow
- Relevant materials: Maximum individual impurity (%) [3, 9]: 0.029%
- Relevant materials: Total impurity (%) [3, 9]: 0.152%
- Appearance character ([3]; High humidity, RH75 ± 5%, Day 20): Yellow
- Relevant materials: Maximum individual impurity (%) [3, 10]: 0.200%
- Relevant materials: Total impurity (%) [3, 10]: 0.483%
- Appearance character ([3]; High humidity, RH75 ± 5%, Day 30): Yellow
- Relevant materials: Maximum individual impurity (%) [3, 11]: 0.287%
- Relevant materials: Total impurity (%) [3, 11]: 1.495%
- Appearance character [3, 12]: Off-white
- Relevant materials: Maximum individual impurity (%) [3, 13]: 0.037%
- Relevant materials: Total impurity (%) [3, 13]: 0.098%
- Appearance character [3, 14]: Off-white
- Relevant materials: Maximum individual impurity (%) [3, 15]: 0.037%
- Relevant materials: Total impurity (%) [3, 15]: 0.100%
- Appearance character [3, 16]: Off-white
- Relevant materials: Maximum individual impurity (%) [3, 17]: 0.021%
- Relevant materials: Total impurity (%) [3, 17]: 0.145%
- Appearance character [3, 18]: Off-white
- Relevant materials: Maximum individual impurity (%) [3, 19]: 0.019%
- Relevant materials: Total impurity (%) [3, 19]: 0.210%
- Appearance character [3, 20]: Off-white
- Relevant materials: Maximum individual impurity (%) [3, 21]: 0.037%
- Relevant materials: Total impurity (%) [3, 21]: 0.098%
- Appearance character [3, 22]: Off-white
- Relevant materials: Maximum individual impurity (%) [3, 23]: 0.077%
- Relevant materials: Total impurity (%) [3, 23]: 0.133%
- Appearance character [3, 24]: Off-white
- Relevant materials: Maximum individual impurity (%) [3, 25]: 0.099%
- Relevant materials: Total impurity (%) [3, 25]: 0.298%
- Appearance character [3, 26]: Off-white
- Relevant materials: Maximum individual impurity (%) [3, 27]: 0.123%
- Relevant materials: Total impurity (%) [3, 27]: 0.396%
- Determination of angle of repose, Average [4]: Average: 58.89°
- Hygroscopic moisture (%) ([1]; 0 h): 4.66%
- Hygroscopic moisture (%) ([1]; 24 h): 5.10%
- Hygroscopic moisture (%) ([1]; 48 h): 5.72%
- Bulk density [5]: 0.267 g · cm^−3
- Tap density [5]: 0.450 g · cm^−3

SMILES: COCCCOc1ccnc(C[S@@+]([O-])c2nc3ccccc3[n-]2)c1C.[Na+] [Crystal form B, R-(+)-2-{[4-(3-methoxypropoxy)-3-methylpyrid-2-yl]methylsulfinyl}-1H-benzimidazole sodium salt]
- Appearance character [3, 7]: Off-white
- Relevant materials: Maximum individual impurity (%) [3, 8]: 0.029%
- Relevant materials: Total impurity (%) [3, 8]: 0.088%
- Appearance character [3, 9]: Yellow
- Relevant materials: Maximum individual impurity (%) [3, 9]: 0.017%
- Relevant materials: Total impurity (%) [3, 9]: 0.141%
- Appearance character [3, 10]: Yellow
- Relevant materials: Maximum individual impurity (%) [3, 10]: 0.189%
- Relevant materials: Total impurity (%) [3, 10]: 0.426%
- Appearance character [3, 11]: Yellow
- Relevant materials: Maximum individual impurity (%) [3, 11]: 0.280%
- Relevant materials: Total impurity (%) [3, 11]: 1.300%
- Appearance character [3, 12]: Off-white
- Relevant materials: Maximum individual impurity (%) [3, 13]: 0.029%
- Relevant materials: Total impurity (%) [3, 13]: 0.088%
- Appearance character [3, 14]: Off-white
- Relevant materials: Maximum individual impurity (%) [3, 15]: 0.028%
- Relevant materials: Total impurity (%) [3, 15]: 0.090%
- Appearance character [3, 16]: Off-white
- Relevant materials: Maximum individual impurity (%) [3, 17]: 0.015%
- Relevant materials: Total impurity (%) [3, 17]: 0.126%
- Appearance character [3, 18]: Off-white
- Relevant materials: Maximum individual impurity (%) [3, 19]: 0.012%
- Relevant materials: Total impurity (%) [3, 19]: 0.190%
- Appearance character [3, 20]: Off-white
- Relevant materials: Maximum individual impurity (%) [3, 21]: 0.029%
- Relevant materials: Total impurity (%) [3, 21]: 0.088%
- Appearance character [3, 22]: Off-white
- Relevant materials: Maximum individual impurity (%) [3, 23]: 0.059%
- Relevant materials: Total impurity (%) [3, 23]: 0.120%
- Appearance character [3, 24]: Off-white
- Relevant materials: Maximum individual impurity (%) [3, 25]: 0.155%
- Relevant materials: Total impurity (%) [3, 25]: 0.263%
- Appearance character [3, 26]: Off-white
- Relevant materials: Maximum individual impurity (%) [3, 27]: 0.100%
- Relevant materials: Total impurity (%) [3, 27]: 0.360%
- Stability compared with crystal form A ([3]; light exposure, high temperature, and high humidity): comparable to that of crystal form A
- Determination of angle of repose, Average [4]: Average: 36.35°
- Hygroscopic moisture (%) ([1]; 0 h): 4.72%
- Hygroscopic moisture (%) ([1]; 24 h): 5.18%
- Hygroscopic moisture (%) ([1]; 48 h): 5.75%
- Compression coefficient ([5]; (tap density − bulk density)/tap density × 100%): 22.72%
- Bulk density [5]: 0.398 g · cm^−3
- Tap density [5]: 0.515 g · cm^−3
- Hausner ratio ([5]; tap density/bulk density): 1.29

SMILES: COCCCOc1ccnc(C[S@@+]([O-])c2nc3ccccc3[n-]2)c1C.[Na+] [Crystal form C, R-(+)-2-{[4-(3-methoxypropoxy)-3-methylpyrid-2-yl]methylsulfinyl}-1H-benzimidazole sodium salt]
- Stability of the crystal form at a high temperature [2]: keeps stable at a high temperature without crystal transformation
- Appearance character [3, 7]: Off-white
- Relevant materials: Maximum individual impurity (%) [3, 8]: 0.032%
- Relevant materials: Total impurity (%) [3, 8]: 0.085%
- Appearance character [3, 9]: Off-white
- Relevant materials: Maximum individual impurity (%) [3, 9]: 0.027%
- Relevant materials: Total impurity (%) [3, 9]: 0.094%
- Appearance character [3, 10]: Off-white
- Relevant materials: Maximum individual impurity (%) [3, 10]: 0.015%
- Relevant materials: Total impurity (%) [3, 10]: 0.166%
- Appearance character [3, 11]: Off-white
- Relevant materials: Maximum individual impurity (%) [3, 11]: 0.292%
- Relevant materials: Total impurity (%) [3, 11]: 0.491%
- Appearance character [3, 12]: Off-white
- Relevant materials: Maximum individual impurity (%) [3, 13]: 0.032%
- Relevant materials: Total impurity (%) [3, 13]: 0.085%
- Appearance character [3, 14]: Off-white
- Relevant materials: Maximum individual impurity (%) [3, 15]: 0.030%
- Relevant materials: Total impurity (%) [3, 15]: 0.093%
- Appearance character [3, 16]: Off-white
- Relevant materials: Maximum individual impurity (%) [3, 17]: 0.028%
- Relevant materials: Total impurity (%) [3, 17]: 0.117%
- Appearance character [3, 18]: Off-white
- Relevant materials: Maximum individual impurity (%) [3, 19]: 0.024%
- Relevant materials: Total impurity (%) [3, 19]: 0.136%
- Appearance character [3, 20]: Off-white
- Relevant materials: Maximum individual impurity (%) [3, 21]: 0.032%
- Relevant materials: Total impurity (%) [3, 21]: 0.085%
- Appearance character [3, 22]: Off-white
- Relevant materials: Maximum individual impurity (%) [3, 23]: 0.088%
- Relevant materials: Total impurity (%) [3, 23]: 0.112%
- Appearance character [3, 24]: Off-white
- Relevant materials: Maximum individual impurity (%) [3, 25]: 0.094%
- Relevant materials: Total impurity (%) [3, 25]: 0.245%
- Appearance character [3, 26]: Off-white
- Relevant materials: Maximum individual impurity (%) [3, 27]: 0.113%
- Relevant materials: Total impurity (%) [3, 27]: 0.344%
- Stability compared with crystal form A ([3]; high temperature and high humidity): better than that of crystal form A
- Stability compared with crystal form A ([3]; light exposure): comparable to that of crystal form A
- Hygroscopic moisture (%) ([1]; 0 h): 0.11%
- Hygroscopic moisture (%) ([1]; 24 h): 0.15%
- Hygroscopic moisture (%) ([1]; 48 h): 0.18%
- Stability of the crystal form in suspension equilibrium [6]: better stability than amorphous form and crystal form A
